# Data taken from patent publication US20100311714A1, “1H-IMIDAZO[4,5-c]QUINOLINONE COMPOUNDS” (priority 2009, published 2010).
# pIC50: −log10 of the molar value.
# Biological target: T1, PI3K beta (Homo sapiens, UniProt P42338)
# T1 construct: for the full-length p110-b subunit are generated and fused by overlapping PCR; His tag (C); made in house; host or cells: baculovirus BV949; Tn5 (Trichoplusia ni) or TiniPro insect cells
# Assay: PI3K beta kinase assay (Kinase-Glo luminescence)
# Type: biochemical
# Conditions: read-out: EPK_PI3Kbeta/IC50
# How it was run: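 Kinase-Glo luminescence read out ATP left after a 60-min room-temperature reaction, started with ATP (1 μM final) on 25 nM His-tagged p85 iSH2–p110β (BV949) plus 10 μg/mL PI substrate in pH 7.5 Tris buffer. Percent inhibition at eight concentrations was fitted to a four-parameter logistic model for IC50.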
# T1 sequence (P42338 with tags, fused parts or gaps limits assumed): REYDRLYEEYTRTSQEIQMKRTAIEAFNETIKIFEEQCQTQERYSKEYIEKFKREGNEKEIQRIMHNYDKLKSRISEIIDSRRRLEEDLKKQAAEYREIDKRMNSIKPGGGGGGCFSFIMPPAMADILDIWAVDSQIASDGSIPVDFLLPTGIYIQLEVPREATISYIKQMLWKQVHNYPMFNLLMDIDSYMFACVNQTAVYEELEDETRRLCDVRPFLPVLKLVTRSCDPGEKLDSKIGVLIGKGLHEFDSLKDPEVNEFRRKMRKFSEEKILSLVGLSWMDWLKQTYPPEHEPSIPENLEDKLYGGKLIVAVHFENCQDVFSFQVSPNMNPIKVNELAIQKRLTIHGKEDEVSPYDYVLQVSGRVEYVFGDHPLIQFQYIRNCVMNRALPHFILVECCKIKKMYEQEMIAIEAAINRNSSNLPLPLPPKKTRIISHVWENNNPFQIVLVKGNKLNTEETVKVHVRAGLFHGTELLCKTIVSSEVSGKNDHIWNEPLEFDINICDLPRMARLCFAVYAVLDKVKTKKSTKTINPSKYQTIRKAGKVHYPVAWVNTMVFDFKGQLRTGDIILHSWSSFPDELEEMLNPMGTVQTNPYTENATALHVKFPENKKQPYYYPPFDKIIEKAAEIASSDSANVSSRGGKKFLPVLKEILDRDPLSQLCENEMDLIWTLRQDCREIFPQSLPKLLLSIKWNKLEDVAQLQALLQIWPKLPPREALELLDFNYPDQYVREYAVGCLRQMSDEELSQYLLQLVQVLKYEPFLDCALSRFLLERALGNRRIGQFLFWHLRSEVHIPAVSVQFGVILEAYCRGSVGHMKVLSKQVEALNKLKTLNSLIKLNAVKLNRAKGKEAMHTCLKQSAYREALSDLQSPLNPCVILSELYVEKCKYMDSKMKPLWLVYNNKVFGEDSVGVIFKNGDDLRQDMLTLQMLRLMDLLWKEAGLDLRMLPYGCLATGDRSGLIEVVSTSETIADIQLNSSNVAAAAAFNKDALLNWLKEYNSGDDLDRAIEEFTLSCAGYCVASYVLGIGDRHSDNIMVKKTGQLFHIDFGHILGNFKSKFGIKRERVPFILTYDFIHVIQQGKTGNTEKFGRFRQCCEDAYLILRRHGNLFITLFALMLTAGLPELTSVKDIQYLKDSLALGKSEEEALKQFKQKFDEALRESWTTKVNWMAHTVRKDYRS
row,pIC50,Compound
1,7.39,"CCNc1cc(-c2ccc3ncc4c(c3c2)n(-c2ccc(OC)nc2Cl)c(=O)n4C)cnc1C [Example 18.1, 1-(2-Chloro-6-methoxy-pyridin-3-yl)-8-(5-ethylamino-6-methyl-pyridin-3-yl)-3-methyl-1,3-dihydro-imidazo[4,5-c]quinolin-2-one]"
2,7.17,"CNc1cc(-c2ccc3ncc4c(c3c2)n(-c2ccc(N(C)C)nc2C)c(=O)n4C)cnc1C [Example 19.2, 1-(6-Dimethylamino-2-methyl-pyridin-3-yl)-3-methyl-8-(6-methyl-5-methylamino-pyridin-3-yl)-1,3-dihydro-imidazo[4,5-c]quinolin-2-one]"
3,5.70,"CCOc1ccc(-c2ccc3ncc4c(c3c2)n(-c2ccc(N(C)C)nc2C)c(=O)n4C)cn1 [Example 19.3, 1-(6-Dimethylamino-2-methyl-pyridin-3-yl)-8-(6-ethoxy-pyridin-3-yl)-3-methyl-1,3-dihydro-imidazo[4,5-c]quinolin-2-one]"
4,6.70,"CCOc1cc(-c2ccc3ncc4c(c3c2)n(-c2cccnc2C)c(=O)n4C)cnc1C [Example 2.22, 8-(5-Ethoxy-6-methyl-pyridin-3-yl)-3-methyl-1-(2-methyl-pyridin-3-yl)-1,3-dihydro-imidazo[4,5-c]quinolin-2-one]"
5,7.70,"COCCOc1ccc(-n2c(=O)n(C)c3cnc4ccc(-c5cnc(N)c(C(F)(F)F)c5)cc4c32)c(C)n1 [Example 13.2, 8-(6-Amino-5-trifluoromethyl-pyridin-3-yl)-1-[6-(2-methoxy-ethoxy)-2-methyl-pyridin-3-yl]-3-methyl-1,3-dihydro-imidazo[4,5-c]quinolin-2-one]"
6,> 8.52,"COc1cc(-c2ccc3ncc4c(c3c2)n(-c2ccc(N(C)C)nc2C)c(=O)n4C)cnc1CO [Example 19.4, 1-(6-Dimethylamino-2-methyl-pyridin-3-yl)-8-(6-hydroxymethyl-5-methoxy-pyridin-3-yl)-3-methyl-1,3-dihydro-imidazo[4,5-c]quinolin-2-one]"
7,6.30,"CNc1ccc(-c2ccc3ncc4c(c3c2)n(-c2ccc(OCCOC)nc2C)c(=O)n4C)cn1 [Example 13.3, 1-[6-(2-Methoxy-ethoxy)-2-methyl-pyridin-3-yl]-3-methyl-8-(6-methylamino-pyridin-3-yl)-1,3-dihydro-imidazo[4,5-c]quinolin-2-one]"
8,8.22,"CCNc1cc(-c2ccc3ncc4c(c3c2)n(-c2ccc(OC)nc2C)c(=O)n4C)cnc1C [Example 11.7, 8-(5-Ethylamino-6-methyl-pyridin-3-yl)-1-(6-methoxy-2-methyl-pyridin-3-yl)-3-methyl-1,3-dihydro-imidazo[4,5-c]quinolin-2-one]"

# The next lines start with the compound.
row,Compound,pIC50
1,"COc1nc(N2CCNCC2)ccc1-n1c(=O)n(C)c2cnc3ccc(-c4cnc(N(C)C)nc4)cc3c21 [Example 9.4, 8-(2-Dimethylamino-pyrimidin-5-yl)-1-(2-methoxy-6-piperazin-1-yl-pyridin-3-yl)-3-methyl-1,3-dihydro-imidazo[4,5-c]quinolin-2-one]",6.85
2,"COc1ccc(-n2c(=O)n(C)c3cnc4ccc(-c5ccc6nccn6c5)cc4c32)c(OC)n1 [Example 8.10, 1-(2,6-Dimethoxy-pyridin-3-yl)-8-imidazo[1,2-a]pyridin-6-yl-3-methyl-1,3-dihydro-imidazo[4,5-c]quinolin-2-one]",5.87
3,"COCC(=O)Nc1ccc(-n2c(=O)n(C)c3cnc4ccc(-c5cncc(OC(C)C)c5)cc4c32)c(C)n1 [Example 20.5, N-{5-[8-(5-Isopropoxy-pyridin-3-yl)-3-methyl-2-oxo-2,3-dihydro-imidazo[4,5-c]quinolin-1-yl]-6-methyl-pyridin-2-yl}-2-methoxy-acetamide]",6.27
4,"Cc1nc(C(C)(C)O)ccc1-n1c(=O)n(C)c2cnc3ccc(-c4cncc(OC(C)C)c4)cc3c21 [Example 31.9, 1-[6-(1-Hydroxy-1-methyl-ethyl)-2-methyl-pyridin-3-yl]-8-(5-isopropoxy-pyridin-3-yl)-3-methyl-1,3-dihydro-imidazo[4,5-c]quinolin-2-one]",7.21
5,"COCCN(C)c1ccc(-n2c(=O)n(C)c3cnc4ccc(-c5cncc(N)c5)cc4c32)c(C)n1 [Example 15.8, 8-(5-Amino-pyridin-3-yl)-1-{6-[(2-methoxy-ethyl)-methyl-amino]-2-methyl-pyridin-3-yl}-3-methyl-1,3-dihydro-imidazo[4,5-c]quinolin-2-one]",7.01

# Same assay, conditions: read-out: PI3Kbeta/IC50
row,pIC50,Compound
1,7.64,"COc1ncccc1-n1c(=O)n(C)c2cnc3ccc(-c4cnc(N)c(C(F)(F)F)c4)cc3c21 [Example 1.3, 8-(6-Amino-5-trifluoromethyl-pyridin-3-yl)-1-(2-methoxy-pyridin-3-yl)-3-methyl-1,3-dihydro-imidazo[4,5-c]quinolin-2-one]"
2,6.50,"Cc1ncccc1-n1c(=O)n(C)c2cnc3ccc(-c4cnc5c(ccn5C)c4)cc3c21 [Example 2.14, 3-Methyl-1-(2-methyl-pyridin-3-yl)-8-(1-methyl-1H-pyrrolo[2,3-b]pyridin-5-yl)-1,3-dihydro-imidazo[4,5-c]quinolin-2-one]"
3,6.24,"CCOc1ccc(-c2ccc3ncc4c(c3c2)n(-c2cccnc2C)c(=O)n4C)cn1 [Example 2.1, 8-(6-Ethoxy-pyridin-3-yl)-3-methyl-1-(2-methyl-pyridin-3-yl)-1,3-dihydro-imidazo[4,5-c]quinolin-2-one]"
